Test results from the supplement of paper PMC4862054.

test system: MCF-10A; assay: normalised response (% of control), CellTiter-Glo; higher = more viable cells (100 = DMSO, 0 = benzethonium chloride kill control); settings: incubation time: 72 h
Method in brief: (§1)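 Values are normalised signals, each belonging to one concentration of the series. Breast cancer cells (20 µl suspension) were seeded into 384-well plates with compound at 5 concentrations in 10-fold steps over a compound-specific 10,000-fold range and incubated 72 h. Readouts were CellTox Green fluorescence (485/520 nm), then CellTiter-Glo luminescence after 10 min at room temperature, with each plate set to 0.1 % DMSO as 100 and a positive kill control as 0.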

| Structure (SMILES) | normalised response [%] |
| --- | --- |
| Cc1cc(Nc2nc(N[C@@H](C)c3ncc(F)cn3)ncc2Cl)[nH]n1 [AZD1480] (0.1 nM) | 102 |
| CNC(=O)c1ccccc1Sc1ccc2c(/C=C/c3ccccn3)n[nH]c2c1 [Axitinib] (1 nM) | 101 |
| CC(O)(CS(=O)(=O)c1ccc(F)cc1)C(=O)Nc1ccc(C#N)c(C(F)(F)F)c1 (stereo unspecified) [Bicalutamide] (1 nM) | 107 |

test system: CAL-148; assay: as above; settings: incubation time: 72 h
Method in brief: as §1

| Structure (SMILES) | normalised response [%] |
| --- | --- |
| COc1ccc(S(=O)(=O)Nc2cccnc2Nc2ccc(O)cc2)cc1 [ABT-751] (1 nM) | 97.6 |
| Cc1cc(Nc2nc(N[C@@H](C)c3ncc(F)cn3)ncc2Cl)[nH]n1 [AZD1480] (0.1 nM) | 95.5 |
| CNC(=O)c1ccccc1Sc1ccc2c(/C=C/c3ccccn3)n[nH]c2c1 [Axitinib] (1 nM) | 103 |
| CC(O)(CS(=O)(=O)c1ccc(F)cc1)C(=O)Nc1ccc(C#N)c(C(F)(F)F)c1 (stereo unspecified) [Bicalutamide] (1 nM) | 109 |

test system: BT-549; assay: as above; settings: incubation time: 72 h
Method in brief: as §1

| Structure (SMILES) | normalised response [%] |
| --- | --- |
| COc1ccc(S(=O)(=O)Nc2cccnc2Nc2ccc(O)cc2)cc1 [ABT-751] (1 nM) | 109 |
| Cc1cc(Nc2nc(N[C@@H](C)c3ncc(F)cn3)ncc2Cl)[nH]n1 [AZD1480] (0.1 nM) | 104 |
| CNC(=O)c1ccccc1Sc1ccc2c(/C=C/c3ccccn3)n[nH]c2c1 [Axitinib] (1 nM) | 110 |
| CC(O)(CS(=O)(=O)c1ccc(F)cc1)C(=O)Nc1ccc(C#N)c(C(F)(F)F)c1 (stereo unspecified) [Bicalutamide] (1 nM) | 111 |

test system: MFM-223; assay: as above; settings: incubation time: 72 h
Method in brief: as §1

| Structure (SMILES) | normalised response [%] |
| --- | --- |
| COc1ccc(S(=O)(=O)Nc2cccnc2Nc2ccc(O)cc2)cc1 [ABT-751] (1 nM) | 93.9 |
| Cc1cc(Nc2nc(N[C@@H](C)c3ncc(F)cn3)ncc2Cl)[nH]n1 [AZD1480] (0.1 nM) | 94.9 |
| CNC(=O)c1ccccc1Sc1ccc2c(/C=C/c3ccccn3)n[nH]c2c1 [Axitinib] (1 nM) | 107 |
| CC(O)(CS(=O)(=O)c1ccc(F)cc1)C(=O)Nc1ccc(C#N)c(C(F)(F)F)c1 (stereo unspecified) [Bicalutamide] (1 nM) | 107 |

test system: CAL-120; assay: normalised viability (% of control), CellTiter-Blue; higher = more viable cells (100 = DMSO, 0 = benzethonium chloride kill control); settings: incubation time: 72 h
Experimental: (§2)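 DSRT, CellTiter-Blue viability, 72 h incubation. Signal is normalised to DMSO and benzethonium chloride controls. Value is the normalised response at dose 1.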

| Structure (SMILES) | normalised viability [%] |
| --- | --- |
| COc1ccc(S(=O)(=O)Nc2cccnc2Nc2ccc(O)cc2)cc1 [ABT-751] (1 nM) | 84.7 |
| Cc1cc(Nc2nc(N[C@@H](C)c3ncc(F)cn3)ncc2Cl)[nH]n1 [AZD1480] (0.1 nM) | 93.4 |
| CNC(=O)c1ccccc1Sc1ccc2c(/C=C/c3ccccn3)n[nH]c2c1 [Axitinib] (1 nM) | 77.4 |
| CC(O)(CS(=O)(=O)c1ccc(F)cc1)C(=O)Nc1ccc(C#N)c(C(F)(F)F)c1 (stereo unspecified) [Bicalutamide] (1 nM) | 96 |
| CCN(CC)CCCC(C)Nc1ccnc2cc(Cl)ccc12 (stereo unspecified) [Chloroquine] (0.099 nM) | 85.9 |
| CN(Cc1cnc2nc(N)nc(N)c2n1)c1ccc(C(=O)N[C@@H](CCC(=O)O)C(=O)O)cc1 [Methotrexate] (1 nM) | 90.5 |
| COc1c2occc2cc2ccc(=O)oc12 [Methoxsalen] (1 nM) | 107 |
| C=CCN(/C=C1/C(=O)O[C@H](COC)[C@@]2(C)C1=C(O)C(=O)C1=C2[C@H](OC(C)=O)C[C@]2(C)C(=O)CC[C@@H]12)CC=C [PX-866] (1 nM) | 97.7 |
| CC[C@H](CO)Nc1nc(NCc2ccccc2)c2ncn(C(C)C)c2n1 [Roscovitine] (1 nM) | 83.7 |

test system: HCC1937; assay: as above; settings: incubation time: 72 h
Experimental: as §2

| Structure (SMILES) | normalised viability [%] |
| --- | --- |
| COc1ccc(S(=O)(=O)Nc2cccnc2Nc2ccc(O)cc2)cc1 [ABT-751] (1 nM) | 90.3 |
| Cc1cc(Nc2nc(N[C@@H](C)c3ncc(F)cn3)ncc2Cl)[nH]n1 [AZD1480] (0.1 nM) | 122 |
| CNC(=O)c1ccccc1Sc1ccc2c(/C=C/c3ccccn3)n[nH]c2c1 [Axitinib] (1 nM) | 110 |
| CC(O)(CS(=O)(=O)c1ccc(F)cc1)C(=O)Nc1ccc(C#N)c(C(F)(F)F)c1 (stereo unspecified) [Bicalutamide] (1 nM) | 77 |
| CCN(CC)CCCC(C)Nc1ccnc2cc(Cl)ccc12 (stereo unspecified) [Chloroquine] (0.099 nM) | 89.7 |
| CN(Cc1cnc2nc(N)nc(N)c2n1)c1ccc(C(=O)N[C@@H](CCC(=O)O)C(=O)O)cc1 [Methotrexate] (1 nM) | 84.6 |
| COc1c2occc2cc2ccc(=O)oc12 [Methoxsalen] (1 nM) | 93.8 |
| C=CCN(/C=C1/C(=O)O[C@H](COC)[C@@]2(C)C1=C(O)C(=O)C1=C2[C@H](OC(C)=O)C[C@]2(C)C(=O)CC[C@@H]12)CC=C [PX-866] (1 nM) | 83.9 |
| CC[C@H](CO)Nc1nc(NCc2ccccc2)c2ncn(C(C)C)c2n1 [Roscovitine] (1 nM) | 81.3 |

test system: SK-BR-3; assay: as above; settings: incubation time: 72 h
Experimental: as §2

| Structure (SMILES) | normalised viability [%] |
| --- | --- |
| COc1ccc(S(=O)(=O)Nc2cccnc2Nc2ccc(O)cc2)cc1 [ABT-751] (1 nM) | 87.2 |
| Cc1cc(Nc2nc(N[C@@H](C)c3ncc(F)cn3)ncc2Cl)[nH]n1 [AZD1480] (0.1 nM) | 105 |
| CNC(=O)c1ccccc1Sc1ccc2c(/C=C/c3ccccn3)n[nH]c2c1 [Axitinib] (1 nM) | 104 |
| CC(O)(CS(=O)(=O)c1ccc(F)cc1)C(=O)Nc1ccc(C#N)c(C(F)(F)F)c1 (stereo unspecified) [Bicalutamide] (1 nM) | 86.9 |
| CCN(CC)CCCC(C)Nc1ccnc2cc(Cl)ccc12 (stereo unspecified) [Chloroquine] (0.099 nM) | 91.9 |
| CN(Cc1cnc2nc(N)nc(N)c2n1)c1ccc(C(=O)N[C@@H](CCC(=O)O)C(=O)O)cc1 [Methotrexate] (1 nM) | 88.7 |
| COc1c2occc2cc2ccc(=O)oc12 [Methoxsalen] (1 nM) | 104 |
| C=CCN(/C=C1/C(=O)O[C@H](COC)[C@@]2(C)C1=C(O)C(=O)C1=C2[C@H](OC(C)=O)C[C@]2(C)C(=O)CC[C@@H]12)CC=C [PX-866] (1 nM) | 96.3 |
| CC[C@H](CO)Nc1nc(NCc2ccccc2)c2ncn(C(C)C)c2n1 [Roscovitine] (1 nM) | 92.9 |

test system: HCC1599; assay: as above; settings: incubation time: 72 h
Experimental: as §2

| Structure (SMILES) | normalised viability [%] |
| --- | --- |
| COc1ccc(S(=O)(=O)Nc2cccnc2Nc2ccc(O)cc2)cc1 [ABT-751] (1 nM) | 90 |
| Cc1cc(Nc2nc(N[C@@H](C)c3ncc(F)cn3)ncc2Cl)[nH]n1 [AZD1480] (0.1 nM) | 97 |
| CNC(=O)c1ccccc1Sc1ccc2c(/C=C/c3ccccn3)n[nH]c2c1 [Axitinib] (1 nM) | 92.4 |
| CC(O)(CS(=O)(=O)c1ccc(F)cc1)C(=O)Nc1ccc(C#N)c(C(F)(F)F)c1 (stereo unspecified) [Bicalutamide] (1 nM) | 93.8 |
| CCN(CC)CCCC(C)Nc1ccnc2cc(Cl)ccc12 (stereo unspecified) [Chloroquine] (0.099 nM) | 96.9 |
| CN(Cc1cnc2nc(N)nc(N)c2n1)c1ccc(C(=O)N[C@@H](CCC(=O)O)C(=O)O)cc1 [Methotrexate] (1 nM) | 93.6 |
| COc1c2occc2cc2ccc(=O)oc12 [Methoxsalen] (1 nM) | 104 |
| C=CCN(/C=C1/C(=O)O[C@H](COC)[C@@]2(C)C1=C(O)C(=O)C1=C2[C@H](OC(C)=O)C[C@]2(C)C(=O)CC[C@@H]12)CC=C [PX-866] (1 nM) | 104 |
| CC[C@H](CO)Nc1nc(NCc2ccccc2)c2ncn(C(C)C)c2n1 [Roscovitine] (1 nM) | 101 |

test system: DU-4475; assay: as above; settings: incubation time: 72 h
Experimental: as §2

| Structure (SMILES) | normalised viability [%] |
| --- | --- |
| COc1ccc(S(=O)(=O)Nc2cccnc2Nc2ccc(O)cc2)cc1 [ABT-751] (1 nM) | 96.5 |
| Cc1cc(Nc2nc(N[C@@H](C)c3ncc(F)cn3)ncc2Cl)[nH]n1 [AZD1480] (0.1 nM) | 115 |
| CNC(=O)c1ccccc1Sc1ccc2c(/C=C/c3ccccn3)n[nH]c2c1 [Axitinib] (1 nM) | 115 |
| CC(O)(CS(=O)(=O)c1ccc(F)cc1)C(=O)Nc1ccc(C#N)c(C(F)(F)F)c1 (stereo unspecified) [Bicalutamide] (1 nM) | 112 |
| CCN(CC)CCCC(C)Nc1ccnc2cc(Cl)ccc12 (stereo unspecified) [Chloroquine] (0.099 nM) | 111 |
| CN(Cc1cnc2nc(N)nc(N)c2n1)c1ccc(C(=O)N[C@@H](CCC(=O)O)C(=O)O)cc1 [Methotrexate] (1 nM) | 114 |
| COc1c2occc2cc2ccc(=O)oc12 [Methoxsalen] (1 nM) | 96.2 |
| C=CCN(/C=C1/C(=O)O[C@H](COC)[C@@]2(C)C1=C(O)C(=O)C1=C2[C@H](OC(C)=O)C[C@]2(C)C(=O)CC[C@@H]12)CC=C [PX-866] (1 nM) | 118 |
| CC[C@H](CO)Nc1nc(NCc2ccccc2)c2ncn(C(C)C)c2n1 [Roscovitine] (1 nM) | 103 |

test system: MDA-MB-436; assay: as above; settings: incubation time: 72 h
Experimental: as §2

| Structure (SMILES) | normalised viability [%] |
| --- | --- |
| COc1ccc(S(=O)(=O)Nc2cccnc2Nc2ccc(O)cc2)cc1 [ABT-751] (1 nM) | 85.8 |
